What was measured:
Type in all cases: cell-based
GOT3 cell line [1] = assay: High throughput drug sensitivity and resistance test (CellTiter-Glo, 72 hours); details: GOT3
Procedure, shortened: (§1)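 Compounds were plated in 10-fold dilutions spanning a 10,000-fold range, alone or with anagrelide (100 nM; SA4, GOT3) or BAY2666605 (40 nM; GIST882, SA4, GOT3). Viability was read by CellTiter-Glo after 72 h and normalized to DMSO and benzethonium chloride controls. Responses were expressed as DSS from four-parameter fits, and the single-agent DSS was subtracted from the combination DSS.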

SA4 cell line [2] = assay: as above; details: SA4
Procedure, shortened: as §1

GIST882 cell line [3] = assay: as above; details: drug combined with BAY2666605 (40 nM) minus drug alone
Procedure, shortened: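 GIST882 viability read by CellTiter-Glo after 72 h, normalized to 0.01% DMSO and 100 μmol/L benzethonium chloride. Compounds also combined with 40 nM BAY2666605. Four-parameter logistic curves; response as drug sensitivity score, with synergy as combination DSS minus single-agent DSS.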

GOT3 and SA4 cell lines = assay: High throughput drug sensitivity and resistance test, average over cell lines (anagrelide combination); details: anagrelide combination, average of SA4 and GOT3; aDSS higher than 3.0 = synergy
Procedure, shortened: as §1

[4] = system: GIST882, GOT3 and SA4 cell lines; assay: High throughput drug sensitivity and resistance test, average over cell lines (BAY2666605 combination)
Procedure, shortened: as §1

GIST882 cell line [5] = assay: Drug combination testing with concentration matrices, SynergyFinder 2.0; details: combination with anagrelide, seven-concentration matrices
Description: (§2) Drug combination testing with anagrelide and 12 selected drugs was performed as described above but with selected drugs using drug concentration matrices covering seven different concentrations with 3 replicate sample of each combinations and in two replicate assays. […] The tool implements synergy scoring with four major reference models: HSA, Loewe, Bliss and ZIP models. The degree of a drug combination effect can be readily visualized as a synergy landscape map over the dose matrix and ZIP synergy score.

GOT3 cell line [6] = assay: as above; details: combination with anagrelide, seven-concentration matrices
Description: as §2

SA4 cell line [7] = assay: as above; details: combination with anagrelide, seven-concentration matrices
Description: as §2

[8] = system: GIST882, SA4, and GOT3 cell lines; assay: Drug combination testing with concentration matrices, SynergyFinder 2.0 (all three cell lines); details: drug concentration matrices and SynergyFinder 2.0, with or without Anagrelide
Description: Drug combination testing with anagrelide and 12 selected drugs was performed as described above but with selected drugs using drug concentration matrices covering seven different concentrations with 3 replicate sample of each combinations and in two replicate assays. Synergy was assessed using an R package SynergyFinder 2.0 (Ianevski A, et al. 2020). The tool implements synergy scoring with four major reference models: HSA, Loewe, Bliss and ZIP models. The degree of a drug combination effect can be readily visualized as a synergy landscape map over the dose matrix and ZIP synergy score.

[9] = system: GIST882, SA4 and GOT3 cell lines; assay: Cell viability assay (96 well, CellTiter-Glo, 72 hours)
Description: Cell viability assay. Cells were plated on 96 Well White/Clear Tissue Culture Treated Plate (FALCON, 353377) 24 hours prior to medium change with drugs. Viabilities of cells in different treatments were evaluated 72 hours after treatment incubation with CellTiter-Glo® Luminescent Cell Viability Assay (G7572, Promega) following manufacturer's instruction. Reagent and cells stabilized to room temperature. Reagent added 100 μl/well, shaken for 2 minutes at room temperature and incubated for 10 min at room temperature before measuring the luminescence by using Hidex Sence microplate reader (Hidex oy). Growth medium was used to exclude background signal from the results.

[10] = drug combined with BAY2666605 (40 nM) minus drug alone
[11] = drug combined with anagrelide hydrochloride (100 nM) minus drug alone

SMILES: CC1(C)CCC(c2ccc(Cl)cc2)=C(CN2CCN(c3ccc(C(=O)NS(=O)(=O)c4ccc(N[C@H](CCN5CCOCC5)CSc5ccccc5)c(S(=O)(=O)C(F)(F)F)c4)cc3)CC2)C1 [Navitoclax, navitoclax]
- GOT3 cell line: DSS(combo (BAY2666605))-DSS(drug) (GOT3 cell line [1]; [10]): 1.7
- GOT3 cell line: DSS(combo (anagrelide))-DSS(drug) (GOT3 cell line [1]; [11]): 2.6
- SA4 cell line: DSS(combo (BAY2666605))-DSS(drug) (SA4 cell line [2]; [10]): 28.5
- SA4 cell line: DSS(combo (anagrelide))-DSS(drug) (SA4 cell line [2]; [11]): 17.4
- GIST882 cell line: DSS(combo (BAY2666605))-DSS(drug) (GIST882 cell line [3]): 20.7
- Average DSS (aDSS) (GOT3 and SA4 cell lines): 10
- Average DSS (aDSS) ([4]; BAY2666605 combination, average of GIST882, SA4 and GOT3, aDSS higher than 3.0 = synergy): 17.0
- synergy in high-throughput screening (in words) ([4]; with anagrelide (GOT3, SA4) or BAY2666605 (GIST882, GOT3, SA4)): synergistic
- Average ZIP synergy score (GIST882 cell line [5]): 11.7
- Average ZIP synergy score (GOT3 cell line [6]): 2.4
- Average ZIP synergy score (SA4 cell line [7]): 8
- efficacy in cell lines (in words) [8]: significant efficacy in cell lines only when they were administered with Anagrelide
- synergy with DNMDP (in words) ([9]; FIGS. 7-8): showed synergy with DNMDP
- cell viability, combination result (in words) ([9]; treated together with 3-hydroxy-anagrelide, FIGS. 5 and 6): verified the result
- cell viability, combination result (in words) ([9]; treated together with Anagrelide, FIGS. 3 and 4): verified the result

Reference: patent publication US20250041294A1, “Synergistic compositions for use in the treatment of cancer” (Sartar Therapeutics Oy, priority 2021, published 2025)
